Experimental data published in ChEMBL document CHEMBL1201862, “PubChem BioAssay data set” (2004).
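Interpolation was linear, between the two tested concentrations surrounding the appropriate level; five concentrations were tested over 48 hours in 96-well plates. GI50: concentration for 50% inhibition of growth.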 Calls of active or inactive are those of the source. Cut-off read from the data, not from the text of the source: active = GI50 up to about 1.1 µM and inactive = higher.

Key:
Assay in all cases: inhibition of tumour cell growth, NCI panel, 48 h
[1] = system: SF-295
[2] = system: OVCAR-3
[3] = system: U-251
[4] = system: TK-10
[5] = system: SK-MEL-28
[6] = system: NCI-H226
[7] = system: 786-0
[8] = system: MOLT-4
[9] = system: HCT-116
[10] = system: Hs-578T
[11] = system: SK-OV-3
[12] = system: SN12C
[13] = system: HOP-62
[14] = system: SNB-19
[15] = system: UO-31
[16] = system: MDA-MB-231
[17] = system: NCI-H23
[18] = system: CAKI-1
[19] = system: HOP-92

Measured: GI50

COc1ccc(C(OCC2OC(n3ccc(NC(=O)c4ccccc4)nc3=O)CC2OP2(=S)SCCS2)(c2ccccc2)c2ccc(OC)cc2)cc1 (configuration not stated)
inactive: [1] 30.7 µM | [2] 22.6 µM | [3] 28 µM | [4] > 100 µM | [5] 30 µM | [6] 34.4 µM | [7] 24.4 µM | [8] 37.5 µM | [9] 32.9 µM | [10] 24.1 µM | [11] 25.2 µM | [12] 21.1 µM | [13] 20.7 µM | [14] 29.6 µM | [15] > 100 µM | [16] 31.1 µM | [17] 43.2 µM

CCOC(=O)c1ccc(C(=O)/C(C#N)=C2\CCCN2C)[nH]1
inactive: [1] > 100 µM | [2] > 100 µM | [3] > 100 µM | [4] > 100 µM | [5] > 100 µM | [6] > 100 µM | [7] > 100 µM | [8] > 100 µM | [18] > 100 µM | [9] > 100 µM | [10] > 100 µM | [12] > 100 µM | [13] > 100 µM | [14] > 100 µM | [15] > 100 µM | [16] > 100 µM | [17] > 100 µM

CN(C)CCNC(=O)c1cc(-c2nccn2C)nc2ccccc12
inactive: [3] > 100 µM | [19] 64.7 µM | [4] > 100 µM | [6] > 100 µM | [7] > 100 µM | [8] > 100 µM | [18] > 100 µM | [9] > 100 µM | [12] > 100 µM | [13] 50.8 µM | [14] > 100 µM | [15] 52.8 µM | [16] > 100 µM | [17] > 100 µM

O=C1O/C(=C(/c2ccc(Cl)cc2)c2nc3ccccc3[nH]2)C(O)=C1c1ccc(Cl)cc1
inactive: [1] 3.99 µM | [2] 2.38 µM | [3] 2.56 µM | [19] 1.32 µM | [4] 2.96 µM | [5] 3.85 µM | [6] 2.1 µM | [7] 3.36 µM | [8] 1.95 µM | [18] 2.23 µM | [9] 1.93 µM | [11] 2.86 µM | [12] 2.72 µM | [13] 1.8 µM | [14] 2.93 µM | [15] 2.9 µM | [17] 1.38 µM

O=C(/C=C/c1ccccc1F)C(c1ccccc1)c1ccccc1
inactive: [1] 2.06 µM | [2] 3.97 µM | [3] 3.74 µM | [19] 2 µM | [4] 4.72 µM | [5] 2.72 µM | [6] 11.4 µM | [7] 2.42 µM | [8] 1.24 µM | [18] 5.36 µM | [9] 2.24 µM | [11] 2.01 µM | [12] 4 µM | [14] 2.14 µM | [15] 12.3 µM | [17] 4.22 µM

CCOc1cc(NC(C)=O)ccc1C(=O)NN1C(=O)/C(=C/c2ccc(Cl)cc2)N=C1c1ccccc1
inactive: [1] 38.5 µM | [2] 33 µM | [3] 55.8 µM | [19] 33.9 µM | [4] 49.1 µM | [5] > 100 µM | [6] 42.8 µM | [7] 74.1 µM | [8] 17.7 µM | [18] 43.1 µM | [9] 46.1 µM | [11] > 100 µM | [12] 70.6 µM | [13] 44.9 µM | [14] > 100 µM | [15] 34.9 µM | [16] 33.7 µM | [17] 41.6 µM

CCCCCCNC(=O)CCC(NC(=O)c1ccc(N(C)Cc2cnc3nc(N)nc(N)c3n2)cc1)C(=O)NCCCCCC (configuration not stated)
inactive: [1] 16.7 µM | [2] > 100 µM | [3] > 100 µM | [19] 98.2 µM | [4] > 100 µM | [5] > 100 µM | [6] > 100 µM | [7] > 100 µM | [8] > 100 µM | [18] > 100 µM | [9] > 100 µM | [11] 17.7 µM | [12] > 100 µM | [13] > 100 µM | [14] > 100 µM | [15] > 100 µM | [16] 34.8 µM | [17] > 100 µM

CCOC(=O)Nc1ccc(S(=O)(=O)I)cc1.CCOC(=O)Nc1ccc(S(=O)(=O)I)cc1.CNC(=O)N=O.NC(=O)OCCCl
inactive: [1] 78 µM | [3] > 100 µM | [19] 40.5 µM | [4] > 100 µM | [5] 67 µM | [7] > 100 µM | [8] > 100 µM | [18] > 100 µM | [9] > 100 µM | [11] > 100 µM | [12] > 100 µM | [13] 46.7 µM | [14] > 100 µM | [15] > 100 µM | [17] > 100 µM
